Holding throughout (format): in vivo, ICR mice
The subject of experiment [1] is normal, T1DM and T2DM mice. Briefly: Plasma insulin levels before and after treatment. As to the method:
The 4-week-old male ICR mice were purchased from the Animal Center of the College of Medicine, National Taiwan University (Taipei, Taiwan) with delicate humane care. This animal study was conducted by following the University ethical guidelines and the ‘Guide for the Care and Use of Laboratory Animals’ published by the US National Institutes of Health (NIH publication no. 85-23, revised 1996). The animal experiments were approved by the Institutional Animal Care and Use Committee (IACUC) of the National Taiwan University (IACUC No. 20110073). Animals were housed in a room at the constant temperature, 22±1° C., with 12 hours light and dark cycles.
(§1) After three days of acclimatization, the mice had free access to a standard rodent chow (normal mice), a standard rodent chow after single […] streptozotocin (STZ) intraperitoneal injection (T1DM mice), and a fat-rich chow diet and fructose-sweetened water (T2DM mice) for 4 weeks. The induction of Type 1 DM was assessed and confirmed when the mice had plasma glucose levels ≧350 mgdL^−1, accompanied with polyuria, hyperphagia and decreased body weight. The induction Type 2 DM in the mice was assessed by measuring fasting plasma glucose levels and confirmed when plasma glucose level was ≧150 mgdL^−1 after the 4-week induction. The animals were assigned randomly into three groups, with seven animals in each group. In group I, the mice were treated with vehicle, 2% DMSO in normal saline, as the negative control. In group II, the mice were intraperitoneally treated with borapetoside A (0.1-10 mgkg^−1). In group Ill, the positive control, the mice received intraperitoneally metformin (300 mgkg^−1; Sigma Chemical Co., St. Louis, Mo., U.S.A.) or insulin (0.5 IUkg^−1; Insulin Actrapid® HM; Novo Nordisk, Denmark). In the acute study, mice under anesthesia received a single intraperitoneal administration of borapetoside A, negative control, or positive control. In the subacute study, mice received intraperitoneal administrations of borapetoside A, vehicle, or insulin twice a day for seven days.
Blood samples were collected from the orbital vascular plexus of the mice under anesthesia. Blood samples were then centrifuged at 13000 rpm for 5 min, and the plasma samples were collected and kept on ice prior to the assay. The plasma glucose concentration was measured by Glucose Kit Reagent (Biosystems S. A., Barcelona, Spain) following the manufacturer's instructions, and the insulin levels were estimated using mouse insulin ELISA kit (Mercodia AB, Uppsala, Sweden).

Experiment [2] concerns IR, Akt, AS160, GLUT2 and PEPCK in liver of mice with type 1 DM. Kind of experiment: Western blot of insulin signaling pathway in liver after 7-day borapetoside A. The following applies: type 1 DM mice; 10 mgkg^−1 twice a day for 7 days. The method, then: as §1
Western blot analysis was carried out by known methods with a slight modification. Briefly, tissues were homogenized in T-PER® Tissue Protein Extraction Reagent (Pierce Biotechnology, Rockford, Ill.) with Halt™ Protease Inhibitor Single-Use Cocktail (Pierce Biotechnology, Rockford, Ill.). Liver homogenates were prepared by mechanical homogenization (Polytron PT3100, Luzernerstrasse, Switzerland). After centrifuging the homogenates at 10,000 g for 30 minutes, the protein concentrations were determined by using a BCA Protein Assay Kit (Pierce Biotechnology, Rockford, Ill.). Later, 60 μg of protein preparations were applied on 10% sodium dodecyl sulfate-polyacrylamide gel for electrophoresis and then transferred to polyvinylidene difluoride membranes (Millipore, Billerica, Mass.). The membranes were analysed by using the antibodies against phospho-insulin receptor β (IRβ) (Tyr^1345), phospho-Akt (Ser^473), phosphor-AS160 (Thr^642), AS160 (Cell Signaling Technology, Beverly, Mass.), IRβ, Akt, β-Actin (Santa Cruz Biotechnology, Santa Cruz, Calif.), GLUT2 (Abcam, Cambridge, UK), and PEPCK (a gift from Professor DK Granner), respectively. Chemiluminescence detection and image analysis was performed with UVP-Biochimie Bioimager and Lab Works software (UVP, Upland, Calif.). The intensity of each band was quantified with ImageQuant.
(A western blot detects proteins with antibodies after separation by electrophoresis.)

Experiment [3] deals with non-diabetic, T1DM and T2DM mice. Kind of experiment: Plasma glucose after bolus intraperitoneal borapetoside C. As to the method:
T1DM mice were induced by a known method. In brief, an intraperitoneal injection of streptozotocin (STZ; Sigma Chemical Co.; St. Louis, Mo.) at 150 mg/kg was performed in mice that were fasted for 48 h. The induction of T1DM was assessed and confirmed when the mice had plasma glucose levels ≧350 mg/dL, accompanied with polyuria, hyperphagia and decreased body weight. The control mice group received an injection of vehicle and then carried out for 4 weeks. T2DM mice were induced by maintaining on a fat-rich chow diet and fructose-sweetened water for 4 weeks from the age of 4-5 weeks according to previous methods. The induction T2DM mice were assessed by measuring fasting plasma glucose levels and confirmed when plasma glucose level was ≧150 mg/dL after a 4-week induction.
Blood samples were collected from the orbital vascular plexus of mice under anesthesia with sodium pentobarbital (80 mg/kg, intraperitoneal, Sigma Chemical Co., St. Louis, Mo., USA). Blood samples were then centrifuged at 13000 rpm for 5 min, and the plasma was kept on ice prior to the assay. The plasma glucose concentration was measured using commercial kits following manufacturer's instructions (BioSystems S. A., Barcelona, Spain).

This is an account of results in US20150265682A1, “THERAPEUTIC METHODS AND COMPOSITIONS FOR TREATING DIABETES” (Orient Europharma Co., Ltd., priority 2014, published 2015).

Molecules are shown by their SMILES.

With `C[C@@]12C[C@@H](c3ccoc3)OC(=O)[C@@H]1C[C@@H]1OC(=O)[C@@]3(O)[C@@H](O[C@@H]4O[C@H](CO)[C@@H](O)[C@H](O)[C@H]4O)CC[C@@H]2[C@@]13C` [Borapetoside A, borapetoside A], the “Plasma insulin Before-treatment” value in experiment [1] (Normal mice, 0.1 mg kg^−1 group) was determined as 61.0 ± 4.6 pmol/L; in experiment [1] (Normal mice, 0.3 mg kg^−1 group) it was 63.4 ± 3.9 pmol/L; in experiment [1] (Normal mice, 1 mg kg^−1 group), 66.1 ± 5.4 pmol/L; in experiment [1] (Normal mice, 3 mg kg^−1 group), 64.4 ± 3.6 pmol/L; in experiment [1] (Normal mice, 10 mg kg^−1 group) it was 68.9 ± 1.3 pmol/L; in experiment [1] (T1DM mice, 0.1 mg kg^−1 group), 22.9 ± 0.1 pmol/L. For the same compound, the “Plasma insulin Before-treatment” value in experiment [1] (T1DM mice, 0.3 mg kg^−1 group) is 22.9 ± 0.1 pmol/L; in experiment [1] (T1DM mice, 1 mg kg^−1 group), 23.1 ± 0.2 pmol/L; in experiment [1] (T1DM mice, 3 mg kg^−1 group), 23.1 ± 0.2 pmol/L; in experiment [1] (T1DM mice, 10 mg kg^−1 group), 23.1 ± 0.1 pmol/L; in experiment [1] (T2DM mice, 0.1 mg kg^−1 group), 140.5 ± 4.1 pmol/L; in experiment [1] (T2DM mice, 0.3 mg kg^−1 group), 133.0 ± 4.2 pmol/L. Also, the “Plasma insulin Before-treatment” value in experiment [1] (T2DM mice, 1 mg kg^−1 group) is 126.8 ± 5.7 pmol/L; in experiment [1] (T2DM mice, 3 mg kg^−1 group), 138.3 ± 3.6 pmol/L; in experiment [1] (T2DM mice, 10 mg kg^−1 group), 134.9 ± 3.5 pmol/L. The “Plasma insulin After-treatment” value in experiment [1] (Normal mice, 0.1 mg kg^−1 i.p.) came to 68.3 ± 4.4 pmol/L; in experiment [1] (Normal mice, 0.3 mg kg^−1 i.p.) it was 129.4 ± 22.0 pmol/L; in experiment [1] (Normal mice, 1 mg kg^−1 i.p.) it was 118.8 ± 10.1 pmol/L; in experiment [1] (Normal mice, 3 mg kg^−1 i.p.) it was 121.2 ± 14.2 pmol/L; in experiment [1] (Normal mice, 10 mg kg^−1 i.p.), 108.2 ± 2.9 pmol/L; in experiment [1] (T1DM mice, 0.1 mg kg^−1 i.p.), 22.7 ± 0.2 pmol/L. Besides, the “Plasma insulin After-treatment” value was 22.7 ± 0.3 pmol/L in experiment [1] (T1DM mice, 0.3 mg kg^−1 i.p.); 23.0 ± 0.2 pmol/L in experiment [1] (T1DM mice, 1 mg kg^−1 i.p.); 23.0 ± 0.0 pmol/L in experiment [1] (T1DM mice, 3 mg kg^−1 i.p.); 23.0 ± 0.1 pmol/L in experiment [1] (T1DM mice, 10 mg kg^−1 i.p.); 134.5 ± 9.3 pmol/L in experiment [1] (T2DM mice, 0.1 mg kg^−1 i.p.); 149.0 ± 9.5 pmol/L in experiment [1] (T2DM mice, 0.3 mg kg^−1 i.p.). The “Plasma insulin After-treatment” value amounted to 123.7 ± 9.6 pmol/L in experiment [1] (T2DM mice, 1 mg kg^−1 i.p.); 184.3 ± 14.6 pmol/L in experiment [1] (T2DM mice, 3 mg kg^−1 i.p.); 205.3 ± 22.2 pmol/L in experiment [1] (T2DM mice, 10 mg kg^−1 i.p.). Also, the “PEPCK expression in liver” value in experiment [2] is “significant decrease”. The “expression of GLUT2 in liver” value in experiment [2] was “increased”. Moreover, the “phosphorylated AS160 in liver” value in experiment [2] is reported as “increased”. Besides, the “phosphorylated Akt in liver” value in experiment [2] was “increased”. For the same compound, the “phosphorylated IR in liver” value in experiment [2] is “increased”.

On to `COC(=O)C1=CCC[C@H]2[C@]3(C)C[C@@H](c4ccoc4)OC(=O)[C@@H]3C[C@@H](O[C@@H]3O[C@H](CO)[C@@H](O)[C@H](O)[C@H]3O)[C@@]12C` [Borapetoside C, borapetoside C], for which the plasma glucose concentrations result in experiment [3] (bolus i.p. 0.5 to 5 mg/kg, non-diabetic, T1DM and T2DM mice) is “significantly lowered plasma glucose concentrations in a dose-dependent manner”. Moreover, in experiment [3] (borapetoside C at 0.1 mg/kg alone), the plasma glucose levels result is “did not alter the plasma glucose levels”.
